Source: patent publication US20210129406A1, “DRUG SOLVATES IN THERMAL PROCESSES TO MAKE SOLID DISPERSIONS AT LOWER PROCESSING TEMPERATURES” (BOARD OF REGENTS, THE UNIVERSITY OF TEXAS SYSTEM, priority 2019, published 2021)

How the values were obtained:
[1] = Solid-state stability of carbamazepine dihydrate (PXRD) at room temperature, 56% relative humidity; format: physicochemical
Protocol: CBZ dihydrate was prepared by suspending CBZ anhydrate in water for 24 hours.

[2] = cited from earlier work

Structure (SMILES)	stability of the dihydrate form ([1]; 56% relative humidity at room temperature throughout the whole experiments)	stability of the dihydrate form (PXRD) ([1]; 3 days at room temperature 56% relative humidity)	pKa [2]
NC(=O)N1c2ccccc2C=Cc2ccccc21 [carbamazepine dihydrate]	stayed stable	stayed stable	–
NC(=O)N1c2ccccc2C=Cc2ccccc21 [carbamazepine]	–	–	13.4
